Where a SMILES comes first, the peptide text is derived from it. The star is where a group is joined. Cbz = O=C(OCc1ccccc1)*
Tests used:
[1] = test system: cell surface c-MPL on MkPs; test: Cell surface c-MPL expression on MkPs by flow cytometry; type: cell-based, mouse; conditions: for cell surface c-MPL levels in MkPs: bone marrow progenitor cells from WT or Abcg4−/− mice, TPO 10 ng/ml, 2 hrs, Tolimidone 10 μM, CRIN-1 1 μM (FIG. 18)
Method: After harvesting bone marrow progenitor cells, RBCs were lysed, and the cells were resuspended in FACS buffer, Bone marrow cells were stained for MkPs as stated above, and c-MPL or isotype control antibodies were included. Cells were then washed and stained with a fluorescently conjugated secondary rabbit-specific antibody to detect the antibody to c-MPL for a further 30 min on ice. Following this, the cells were washed, resuspended in FACS buffer and run on an LSRII flow cytometer. MEPs were identified as Lin^−c-Kit^+CD16/CD32^loCD34^loCD41^−, and MkPs were identified as Lin^−c-Kit^+CD16/CD32^loCD34^loCD41^+.

[2] = test system: c-CBL phosphorylation in MkPs; test: c-CBL tyrosine phosphorylation in MkPs in response to TPO (phospho-flow cytometry); type: cell-based, mouse; conditions: for c-CBL phosphorylation: 5 min TPO, CD 3 mM or CD-chol 30 min, rHDL 20 μg apoA-I ml-1 2 h, SU6656 10 μg ml-1 2 h
Method: Bone marrow progenitor cells were stimulated with TPO at the indicated concentration for the specified period of time at 37° C. and then immediately diluted with ice-cold buffer and placed on ice to prevent further changes in phosphorylation. Cells were then centrifuged at 800 g for 2 min, and the pellet was resuspended in BD fix buffer (BD Biosciences) for 10 min on ice. The cells were washed with BD flow cytometry staining buffer, centrifuged, and then resuspended in BD cytofix/perm buffer III for 20 min. After this, the cells were washed and resuspended in BD staining buffer and incubated with lineage (Sca1, CD127, CD45R, CD19, CD11b, CD3e, TER-119, CD2, CD8, CD4 and Ly-6G, all FITC; eBioscience) and progenitor cell markers (c-Kit, CD16/CD32 (FcγRII/III), CD34, CD41 and antibody to p-c-CBL (Tyr700 human, Tyr698 mouse; BD Biosciences)) or an isotype control for 30 min on ice. The cells were then washed, resuspended in FACS buffer and run on an LSRII. The amount of phosphorylated c-Cbl was normalized against that of isotype control staining.

[3] = test system: WT and Abcg4−/− mice; test: Platelet count after a single TPO injection in WT and Abcg4−/− mice; type: in vivo, mouse; conditions: for increase in the number of platelets: single dose TPO 50 μg per kg body weight (FIG. 2i)
Source text: The Institutional Animal Care and Use Committee of Columbia University approved all the mouse studies. Abcg4−/−, Abcg1−/− Abca1−/− and Abcg1−/− mice in a C57BL/6J background were created as described and used in this study. Abcg4−/− mice were backcrossed onto C57BL/6J mice for more than ten generations. WT (C57BL/6J) and Ldlr−/− (B6.129S7-Ld1rtm1Her) mice were obtained from The Jackson Laboratory (Bar Harbor, Me.). For bone marrow transplantation studies, bone marrow from WT, Abcg4−/−, Abcg1−/− Abca1−/− or Abcg1−/− mice was transplanted into WT or Ldlr−/− recipient mice as described. For atherosclerosis studies, bone marrow-transplanted recipient mice were fed a Western diet (TD88137, Harlan Teklad) for the indicated period of time. Bone marrow-specific retro-viral expression of murine c-MPL^W515L was established as described44 using WT C57BL/6J mice as the recipient and WT C57BL/6J or Abcg4−/− mice as the bone marrow donor. Where indicated, vehicle (saline), rHDL or TPO (R&D Systems) was injected at the indicted dose into the mice through the tail vein. rHDL (CSL-111) was provided by CSL Behring AG, Bern, Switzerland; CSL-111 is composed of human apoA-I and phosphatidylcholine from soy bean in a ratio of 1:150. […]
Complete blood counts were quantified using whole blood collected from tail bleeding. A FORCYTE Veterinary Hematology Analyzer (Oxford Science, Inc.) was used for the analysis.

[4] = test system: bone marrow HSPCs; test: MK-CFU megakaryocyte colony-forming assay; type: cell-based, mouse; conditions: ABCG4-deficient cells (FIG. 13c)
Method: Primary bone marrow HSPCs obtained by FACS were plated in methylcellulose-based medium (5,000 cells per assay) containing TPO (50 ng interleukin-6 (IL-6) (20 ng ml^−1) and IL-3 (10 ng ml^−1) and incubated for 8 d according to the manufacturer's protocol (Megacult-C, Stemcell Technologies). Cultures were fixed, and megakaryocyte colonies were visualized by staining for acetylcholinesterase activity. Nuclei were counterstained with Harris' hematoxylin. Colonies containing more than three megakaryocytes were scored as MK-CFUs.

[5] = test system: MkPs; test: MkP proliferation (EdU incorporation, flow cytometry); type: cell-based, mouse; conditions: 16 h with TPO
[6] = WT MkPs, with TPO 30 ng ml-1, CD 3 mM or CD-chol 30 min, rHDL 20 μg ml-1, MG132 10 μM 2 h, SU6656 10 μg ml-1 2 h
[7] = Abcg4−/− MkPs, with TPO 30 ng ml-1, CD 3 mM or CD-chol 30 min, rHDL 20 μg ml-1, SU6656 10 μg ml-1 2 h

## COc1c2c(cc3c1C(CN)N(C)CC3)OCO2 (stereo not shown) [CRIN-1]
[1]
  cell surface c-MPL levels in MkPs: increases

## CC(C)C[C@@H](C=O)NC(=O)[C@H](CC(C)C)NC(=O)[C@H](CC(C)C)NC(=O)OCc1ccccc1 [MG132] (Cbz-Leu-Leu-Leu-aldehyde)
[1]; [6]
  cell surface c-MPL expression: increased c-MPL expression to a level similar to that in Abcg4−/− cells

## CN(C)S(=O)(=O)c1ccc2c(c1)/C(=C/c1cc3c([nH]1)CCCC3)C(=O)N2 [SU6656]
[1]; [7]
  cell surface c-MPL expression: increased cell surface expression of c-MPL
[1]; [6]
  cell surface c-MPL expression: increased cell surface expression of c-MPL
[2]; Abcg4−/− MkPs
  c-CBL phosphorylation: markedly decreased c-CBL phosphorylation
[2]; SU6656 10 μg ml-1 for 2 h
  difference in response to TPO between WT and Abcg4−/− MkPs (c-CBL phosphorylation, c-MPL expression): abolished the difference in response to TPO
[2]; WT MkPs
  c-CBL phosphorylation: markedly decreased c-CBL phosphorylation

## TPO: Thrombopoietin (R&D Systems), growth factor regulating megakaryocyte and platelet development
[3]; Abcg4−/− mice (FIG. 17)
  increase of platelet count after single injection of TPO, compared with wild type: much more pronounced
[3]; Abcg4−/− mice
  increase in the number of platelets: 2.1 fold
[3]; WT mice
  increase in the number of platelets: 1.4 fold
[3]; wild type mice (FIG. 17)
  platelet count after single injection of TPO: induced increase of platelet count

## Tolimidone
[1]; Abcg4−/− MkPs from hypercholesterolemic (WTD-fed) Ldlr−/− recipient mice, 10 μM, TPO, 2 h
  cell surface c-MPL expression: reduced cell surface c-MPL expression
[1]; Abcg4−/− MkPs from normocholesterolemic mice (FIG. 14)
  cell surface expression of c-MPL: completely reversed the increased cell surface expression of c-MPL
[1]; WT MkPs from hypercholesterolemic (WTD-fed) Ldlr−/− recipient mice, 10 μM, TPO, 2 h
  cell surface c-MPL expression: reduced cell surface c-MPL expression
[1]
  cell surface c-MPL levels in MkPs: decreases

## methyl-β-cyclodextrin
[4]
  number of megakaryocyte colonies: reversed the increase in the number of magakaryecyte colonies
[1]; [7]
  cell surface c-MPL expression: significantly reduced to levels similar to those in cyclodextrin-treated WT MkPs
[2]; Abcg4−/− MkPs
  c-CBL phosphorylation: increased c-CBL phosphorylation
[2]; WT MkPs
  c-CBL phosphorylation: increased c-CBL phosphorylation
[5]; Abcg4−/− MkPs, CD 3 mM or CD-chol 30 min pretreatment, rHDL 20 μg ml-1 16 h
  MkP proliferation (EdU incorporation): significantly reduced to levels similar to those in cyclodextrin-treated WT MkPs
[5]; Lyn−/− MkPs, cholesterol loading or depletion treatments
  MkP proliferation (EdU incorporation): unresponsive
[5]; WT MkPs, CD 3 mM or CD-chol 30 min pretreatment, rHDL 20 μg ml-1 16 h
  MkP proliferation (EdU incorporation): decreased the proliferation
